Measurements from patent US8937167B2 (Washington University, priority 2009, dated 2015).
“Also recorded” adds a separate entry of the source. Read-outs that look alike come from different tables or passages of the source.

Key:
UTI89 biofilm = assay: UTI89 type 1 dependent biofilm formation (inhibition/prevention) assay on PVC, crystal violet; assay type: cell-based, uropathogenic E. coli UTI89; conditions: for IC50: Escherichia coli, read-out: Biofilm Prevention IC50
Summary of the method: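 Prevention: UTI89 grown in LB in PVC wells at 23° C with mannoside at varying concentrations for 48 h, then crystal violet stained and quantified. Disruption: 24 h UTI89 biofilm, mannoside added, grown 16 h more, then crystal violet.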

[1] = biological target: T1, FimH lectin domain (residues 1-158 of UPEC J96 FimH) (Escherichia coli, UniProt P08191); assay type: binding; conditions: Table 21
T1 construct: made in house
Procedure: DSF measures the melting temperature change of protein when binding to small molecules. Melting temperature shifts are proportional to the free energy of binding, and melting temperatures increase even as ligand concentration exceeds the Kd.
FimH lectin domain (residues 1-158 of UPEC J96 FimH, without an affinity tag) was purified as described previously. Five micrograms FimH in 5 μl HBS were mixed with HBS to yield a final volume of 50 μl containing compound at a final concentration of 100 μM and a “5×” final concentration of SYPRO Orange (sold as a “5000×” stock in DMSO and mixed with HBS to a working stock of 50× immediately before use: Life Technologies Inc.; Grand Island, N.Y.). Compounds were diluted to 100 μM from stocks in DMSO and compared to matched control wells with FimH alone plus 0.2% DMSO. 50 μl reactions were placed in 96-well clear-bottom PCR plates and subjected to a melt curve from 20-90° C. in 0.5° C. increments of 15 seconds each followed by a fluorescence read of the “HEX” channel in a Bio-Rad CFX96 thermocycler (Bio-Rad, Hercules, Calif.). Melt curves were fitted to the Boltzmann equation to determine the melting temperature (Tm) (y=A2+(A1−A2)/(1+exp((x−x0)/dx)) where x0 is the Tm) using OriginPro 8 (OriginLab, Northampton Mass.).

[2] = assay type: in vitro ADME; conditions: 64800 sec, […], pH 7.4
Procedure: Materials. The assay was carried out using Multiscreen PVDF 96-well plates (Millipore, Billerica, Mass.) using the company's Transporter Receiver Plate. The lipid (dioleyoylphosphotidylcholine (DOPC):Stearic Acid (80:20, wt %) in dodecane was obtained from Avanti Polar lipids (Alabaster, Ala.). Hank's Buffered Salt Solution (HBSS), pH 7.4 was obtained from MediaTech (Manassas, Va.).
Methods. Each of the test compounds was diluted to 2.5 mM in DMSO (Sigma, St Louis, Mo.) and further diluted prior to testing to 2.5 μM in HBSS, pH 7.4. The assay was performed using a Millipore 96-well Multiscreen-IP PAMPA plate, 5 μl of the lipid suspension was directly added to the PVDF membrane of the filter plate. Immediately following the addition of the lipid to the membrane, 200 μl of HBSS solution containing the test compound was added to the donor (upper) chamber. HBSS (300 μl) is also added to the receiver plate and the filter and receiver plates assembled and incubated overnight at room temperature in a moistened sealed bag to prevent evaporation. The concentration in the receiver plate as well as an equilibrium plate, that represents a theoretical, partition-free sample, was determined by HPLC-tandem mass spectrometry. Analysis of each compound was performed in triplicate.
Analysis. Analysis of both the acceptor and equilibrium samples were performed using an AB 3200 triple quadripole mass spectrometer linked to a Shimadzu DGU-20A HPLC with a Prevail C18 column (3 μm, 2.1×10 mm) with a flow rate of 0.35 ml/min. The mobile phase used was A: 0.1% Formic Acid in water, B: 0.1% Formic Acid in methanol. The elation gradient method is described in the table. Data acquisition and peak height determination was performed using Analyst v.1.4.2.
Calculations. The login of the effective permeability (LogPe) was calculated using the following equation
[formula] [formula] Where the drug concentration is the peak areas for the analyte and VD and VA is the volume of the donor and acceptor compartment respectively. The area is the surface area of the PVDF membrane (0.11 cm^2) and time is the incubation in seconds (64,800 sec). Each value is the mean of triplicates performed on the same day.

FimH [3] = biological target: FimH (Escherichia coli, UniProt Q1R2J4); conditions: for HAI Titer EC>50: Table 21;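 as to all read-outs here: hemagglutination inhibition of guinea pig erythrocytes agglutinated by type 1 piliated uropathogenic E. coli via FimH mannose binding, quantified through serial dilutions of compound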
FimH [4] = biological target: FimH (Escherichia coli, UniProt P08191); conditions: previously reported, SPR; read-out: KD; cited from earlier work
UTI89 [5] = assay: Mouse UTI model, bladder bacterial titers (CFU); assay type: in vivo, E. coli (UPEC); host C3H/HeN mouse; conditions: 6 hours post-infection
Procedure: For mannoside treatment, bacteria were incubated with 1 mM ZFH56 prior to inoculation. Every 24 h for 3 days, mice were transurethrally inoculated with 1 mM ZFH56. For antibiotic treatment, mice were inoculated with UTI89 and immediately given antibiotics in the drinking water for 3 days. Antibiotics used were trimethoprim-sulfamethoxazole (SXT) at […], respectively. For dual treatment, bacteria were incubated with 1 mM ZFH56 prior to inoculation. Every 24 h for 3 days, mice were transurethrally inoculated with 1 mM ZFH56. Additionally, mice were immediately given antibiotics in the drinking water for 3 days as in the antibiotic only treatment. Urine was collected every day for 13 days. At 2 weeks, mice were sacrificed and bladders were titered.
UTI89 biofilm was grown in LB+/− mannoside for 24 h at 22° C. in PVC plates and quantitated using crystal violet. UTI89 biofilm for confocal microscopy was grown in LB for 24 h at 22° C. on PVC coverslips. Mannoside was then added and biofilm was grown for an additional 16 h. Coverslips were then washed in PBS, fixed in 2% paraformaldehyde and stained with SYTO9 prior to confocal microscopy. For all animal experiments UTI89 or PBC-1 was grown 2×24 h statically in LB at 37° C. and inoculated at a dose of 1×10^7 bacteria in 50 μl. All mice used were female C3H/HeN (Jackson). For the pretreatment studies, bacteria were incubated with mannoside for 20 min prior to inoculation into the mouse. […] For CFU counts, bladders were harvested at 6 hpi and placed in 1 mL PBS. Bladders were then homogenized, diluted and plated on LB. After growth at 37° C. overnight, bacterial counts were determined. LacZ staining and gentamicin protection assays were performed at 6 hpi. […] Water was changed daily with fresh antibiotics. Standard growth curve assays and hemagglutination assays were performed with TMP-SMZ. All statistical analysis performed was a two-tailed Mann-Whitney U test.
Animal infections. Bacteria were grown under type 1 pili-inducing conditions (2×24 h at 37° C. statically in LB). The bacteria were harvested and resuspended to an OD600 of 0.5 in PBS. Eight-week-old C3H/HeN (Harlan) female mice were anesthetized by inhalation of isoflurane and infected via transurethral catheterization with 50 μl of the bacterial suspension, resulting in 1-2×10^7 inoculum. At 6 hpi, mice were sacrificed by cervical dislocation under anesthesia and the bladders were immediately harvested and processed as described below. All animal studies using mice were approved by the Animal Studies Committee of Washington University (Animal Protocol Number 20100002).
Bladder tissue bacterial titer determination. Mannoside ZFH-2056 was administered either IP (5 mg/kg) or orally (100 mg/kg) 30 min prior to inoculation with UTI89. […]

UTI89 [6] = assay: Enumeration of bladder IBCs by LacZ staining in infected mice; assay type: in vivo, E. coli (UPEC); host C3H/HeN mouse; conditions: 6 hours post-infection
Procedure: After invasion, UPEC are able to rapidly replicate to form IBCs, thus dramatically expanding in numbers. After maturation of the IBC, bacteria are able to disperse from the biomass and spread to neighboring cells to expand the buildup in bacterial numbers via next generation IBC. The ability of mannosides to block IBC formation was evaluated based on LacZ staining of whole mount bladders, a protocol developed to enumerate IBCs. Whole bladder titers were also determined by quantifying colony forming units (CFUs) at 6 hours post-infection and later time points as test compounds were further developed.
(§1) Enumeration of bladder IBCs. For bacterial pretreatment experiments, mannoside was added to the bacterial suspension and incubated for 20 min. For animal pretreatment experiments, mannoside ZFH-2056 was administered either IP (5 mg/kg) or orally (100 mg/kg) 30 min prior to inoculation with UTI89. To accurately count the number of IBCs, mice were sacrificed 6 hpi and bladders were aseptically removed, bisected, splayed on silicone plates and fixed in 2% paraformaldehyde (v/v). IBCs, readily discernable as punctate violet spots, were quantified by LacZ staining of whole bladders.
as §1, with “For” for “Enumeration of bladder IBCs. For bacterial pretreatment experiments, mannoside was added to the bacterial suspension and incubated for 20 min. For”

UTI89 [7] = assay: Ex vivo gentamicin protection assay of infected mouse bladders (luminal vs intracellular bacteria); assay type: in vivo, E. coli (UPEC); host mouse; conditions: 1 hour post-infection, bacteria inoculated in presence of mannoside
Text: Based on the extensive elucidation of the UPEC pathogenic cascade, critical nodes in pathogenesis that mannosides would target and thereby have powerful and potent therapeutic ramifications were identified. The first step in the UPEC pathway involves FimH-mediated colonization of the bladder epithelium via the recognition of mannose receptors. Bacterial invasion into superficial bladder umbrella cells can then ensue. […] To test this, a well-established gentamicin protection assay that allows the determination of the luminally bound fraction versus the intracellular fraction was utilized (FIG. 10). […] This may be due to contamination from bacteria in the urine or bacteria that are non-specifically associated with the epithelium. In any case, blocking invasion blocks the ability of the bacteria to rapidly expand in numbers. This is due to the ability of the mannosides to block the IBC mechanism.
Gentamicin protection assay. To enumerate bacteria present in the intracellular versus extracellular compartments, bladders were aseptically harvested at 6 hpi. The bladders were then bisected twice and washed three times in 500 μl of PBS each. The wash fractions were pooled, lightly spun at 500 rpm for 5 min to pellet exfoliated bladder cells, serially diluted, and plated onto LB agar to obtain the luminal fraction. The bladders were treated with 100 μg of gentamicin/ml for 90 min at 37° C. After treatment, the bladders were washed twice with PBS to eliminate residual gentamicin, homogenized in 1 ml of PBS, serially diluted, and plated onto LB agar to enumberate the CFUs in the intracellular fraction.
To enumerate bacteria present in the intracellular versus extracellular compartments, bladders were aseptically harvested at 6 hpi. The bladders were then bisected twice and washed three times in 500 μl of PBS each. The wash fractions were pooled, lightly spun at 500 rpm for 5 min to pellet exfoliated bladder cells, serially diluted, and plated onto LB agar to obtain the luminal fraction. The bladders were treated with 100 μg of gentamicin/ml for 90 min at 37° C. […]

[8] = UTI89 inoculated in presence of pilicide

Row | SMILES | IC50 (UTI89 biofilm) [nM] | DSF Melting Temp. [1] [C.] | PAMPA (LogPe) [2] | HAI Titer EC>90 (FimH [3]) [µM] | HAI Titer EC>50 (FimH [3]; ZFH/JWJ codes) [µM] | HAI Titer EC>90 (FimH [3]; Table 22, ZFH/JWJ codes) [µM] | other results
1 | CNC(=O)c1cc(C(=O)NC)cc(-c2ccc(OC3O[C@@H](CO)[C@@H](O)[C@H](O)[C@H]3O)c(C(F)(F)F)c2)c1 (stereo partly drawn) [Compound 1JWJ149, N1,N3-dimethyl-5-[3-(trifluoromethyl)-4-[(3R,4S,5S,6S)-3,4,5-trihydroxy-6-(hydroxymethyl)tetrahydropyran-2-yl]oxy-phenyl]benzene-1,3-dicarboxamide] | 43 | 76.15 | −6.27 | 0.008 | 0.008 | 0.008 | 
2 | CCCCO[C@H]1O[C@H](CO)[C@@H](O)[C@H](O)[C@@H]1O [butylmannoside, α-D-butylmannoside] |  |  |  |  |  |  | Kd (FimH [4]): 151 nM
3 | CNC(=O)c1cccc(-c2ccc(OC3O[C@@H](CO)[C@@H](O)[C@H](O)[C@H]3O)c(C)c2)c1 (stereo partly drawn) [Compound 4ZFH269, N-methyl-3-[3-methyl-4-[(3R,4S,5S,6S)-3,4,5-trihydroxy-6-(hydroxymethyl)tetrahydropyran-2-yl]oxy-phenyl]benzamide] | 159 | 74.46 | −3.89 | 0.062 | 0.06 | 0.062 | 
4 | O=C(O)[C@@H]1CSc2c(-c3cccc(C(F)(F)F)c3)c(Cc3cccc4ccccc34)cc(=O)n21 [FN075, reference compound] |  |  |  |  |  |  | bacterial load within the bladder (UTI89 [5]; [8]): significant attenuation of virulence; also recorded: significantly reduced bacterial load; IBCs in the bladder (UTI89 [6]; [8]): significant attenuation of virulence; also recorded: significantly less IBCs
5 | CCCCCCCO[C@H]1O[C@H](CO)[C@@H](O)[C@H](O)[C@@H]1O [heptyl mannose] |  |  |  |  |  |  | inhibition of UPEC biofilm formation in vitro (UTI89 biofilm; 1 mM): inhibited UPEC biofilm formation; virulence / bladder bacterial load (UTI89 [5]; UTI89 incubated with 5 mM compound before inoculation): significant attenuation of virulence; also recorded: reduction of bacterial load in the bladder
6 | NC(=O)c1cccc(OC2OC(CO)C(O)C(O)C2O)c1 (stereo not shown) [Compound 2ZFH98, 3-[3,4,5-trihydroxy-6-(hydroxymethyl)tetrahydropyran-2-yl]oxybenzamide] |  |  |  | 16.000 |  |  | bladder CFUs / colonization (UTI89 [5]; 1 mM mannoside treated bacteria): significantly reduced colonization; IBCs (UTI89 [6]; 0.1 mM mannoside): significantly reduced IBCs; IBCs (UTI89 [6]; 1 mM mannoside): significantly reduced IBCs; intracellular bacteria (UTI89 [7]): significant decrease
